Columns and labels:
GR = biological target: T1, GR (Homo sapiens, UniProt P04150); test: PolarScreen Glucocorticoid Receptor competitive binding assay; design: followed by GR Full Length (partially purified receptor in storage buffer); purchased ThermoFisher Scientific
T1 sequence (P04150 1-777): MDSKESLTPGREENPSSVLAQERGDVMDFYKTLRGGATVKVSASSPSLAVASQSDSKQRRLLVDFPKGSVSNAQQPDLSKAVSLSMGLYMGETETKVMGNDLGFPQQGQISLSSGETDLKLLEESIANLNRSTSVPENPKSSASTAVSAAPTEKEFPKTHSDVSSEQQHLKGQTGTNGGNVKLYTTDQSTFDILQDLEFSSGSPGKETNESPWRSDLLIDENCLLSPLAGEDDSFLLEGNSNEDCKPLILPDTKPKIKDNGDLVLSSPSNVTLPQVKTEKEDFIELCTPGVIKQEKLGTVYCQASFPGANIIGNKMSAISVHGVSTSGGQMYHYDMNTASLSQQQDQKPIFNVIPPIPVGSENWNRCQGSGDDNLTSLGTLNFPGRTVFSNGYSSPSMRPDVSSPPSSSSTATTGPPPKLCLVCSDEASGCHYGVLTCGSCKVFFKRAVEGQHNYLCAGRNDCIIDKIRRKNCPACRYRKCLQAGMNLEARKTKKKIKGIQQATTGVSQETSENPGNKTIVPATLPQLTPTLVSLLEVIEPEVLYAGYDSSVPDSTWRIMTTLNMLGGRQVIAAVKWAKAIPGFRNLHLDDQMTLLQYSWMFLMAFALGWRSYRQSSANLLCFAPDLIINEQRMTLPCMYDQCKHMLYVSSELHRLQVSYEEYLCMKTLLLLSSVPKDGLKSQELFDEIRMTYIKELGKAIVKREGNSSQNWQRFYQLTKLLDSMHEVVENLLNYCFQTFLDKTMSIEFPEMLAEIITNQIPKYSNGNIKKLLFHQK
Description: To determine the relative binding affinities of the different compounds for the human GR in vitro, the PolarScreen™ Glucocorticoid Receptor Competitor Assay Kit (ThermoFisher Scientific, Waltham, MA, USA) was used following the manufacturer's instructions. Briefly, test compounds were first dissolved in DMSO to a 10 mM stock concentration and further diluted in GR buffer (100 mM potassium phosphate (pH 7.4), 200 mM Na2MoO4, 1 mM EDTA, and 20% DMSO). Serial dilutions of the compounds were transferred to a Corning® black 384-well plate and Fluormone GS red™ was added, followed by GR Full Length (partially purified receptor in storage buffer). The plate was incubated for 4 h at RT in the dark and fluorescence polarization was measured with a CLARIOStar Microplate Reader (BMG Labtech, Ortenberg, Germany). Obtained values were normalized to the assay maximum (no ligand) and minimum control (10 µM dexamethasone), and relative percentages of polarization were determined. Dose-response curves were fitted enabling the calculations of IC50 values for each compound.

mmp9 = test: qPCR mmp9 expression in zebrafish larvae; type: in vivo, zebrafish (Danio rerio); settings: Example 2, wounded larvae
Description: To determine mRNA levels of specific genes in zebrafish, 3 dpf larvae were used (wounded and non-wounded) and after 6 h of chemical treatments (2 h pre-wounding, 4 h post-wounding), as indicated. Per sample, groups of 15 larvae were collected in TRIzol reagent (Thermo Fisher Scientific, Waltham, MA, USA), and total RNA was isolated using the miRNeasy mini kit (Qiagen, Hilden, Germany). For similar experiments in Hela cells, cells were seeded in 6 well plates, and after 6 h of chemical treatment, the cells were removed from the wells using TRIzol reagent, and total RNA was isolated using the miRNeasy mini kit according to the manufacturer's instructions. The RNA samples were DNAse-treated utilizing the DNA-free™ DNA Removal Kit (Thermo Fisher Scientific). The cDNA synthesis was performed using the iScript cDNA synthesis kit (Bio-Rad Laboratories, Hercules, CA, USA) using 1 μg of RNA per sample. For the PCR reactions, 10 μM of forward and 10 μM of reverse primer, 12.5 μl of iQ SYBR Green Supermix (Bio-Rad), and 2 μl of cDNA were added to the qPCR reaction mixture. […] Cycle threshold values (Ct values, i.e. the cycle numbers at which a threshold value of the fluorescence intensity was reached) were determined for each sample. […] The fold change per sample (compared to the respective control group) was calculated using the ΔΔCt method.

SMILES: CC(C)=CCC[C@](C)(O[C@@H]1O[C@H](CO)[C@@H](O)[C@H](O)[C@H]1O)[C@H]1CC[C@]2(C)[C@@H]1[C@H](O)C[C@@H]1[C@@]3(C)CC[C@H](O)C(C)(C)[C@@H]3[C@@H](O[C@@H]3O[C@H](CO)[C@@H](O)[C@H](O)[C@H]3O)C[C@]12C [Rg1, (3β,6α, 12β)-3,12-Dihydroxydammar-24-ene-6,20-diyl bis-β-D-glucopyranoside]
- IC50 (GR; fluorescence polarization, 4 h at RT): 22 µM
- relative GR binding affinity, times lower than beclomethasone (GR; vs beclomethasone): ~ 4,000 times

SMILES: C[C@H]1C[C@H]2[C@@H]3CCC4=CC(=O)C=C[C@]4(C)[C@@]3(Cl)[C@@H](O)C[C@]2(C)[C@@]1(O)C(=O)CO [beclomethasone, reference compound]
- mmp9 expression (mmp9): suppressed the expression levels of il1b, il6 and mmp9, similarly to Bec
